Laboratory results taken from article PMC4214152 (Chemical science (Royal Society of Chemistry : 2010), 2011).

Assays:
[1] = biological target: αIIbβ3 integrin (Homo sapiens, UniProt P05106+P08514); assay: Hyperpolarized 129Xe NMR binding assay
[2] = physchem; format: physicochemical
[3] = test system: HFL-1 lung fibroblasts; conditions: HFL-1, 100 μM, 24 h incubation
[4] = biological target: αvβ3 integrin receptor (Homo sapiens, UniProt P05106+P06756); format: binding
[5] = test system: AsPC-1 pancreatic carcinoma; assay: Cell viability by MTT assay; format: cell-based; conditions: AsPC-1, 100 μM, 24 h
[6] = test system: NCI-H1975 lung carcinoma cells; assay: Cell viability by MTT assay; format: cell-based; conditions: NCI-H1975, 100 μM, 24 h
[7] = biological target: purified human αIIbβ3 integrin receptor (Homo sapiens, UniProt P05106+P08514); format: binding
[8] = 50 μM with 16 μM αIIbβ3 integrin, Tris buffer, 30% glycerol, 0.1% Triton X-100

SMILES: COc1cc2c3cc1OCCOc1cc4c(cc1OCc1cn(CCCC[C@@H]5NC(=O)[C@@H](Cc6ccc(O)cc6)NC(=O)[C@H](CC(=O)O)NC(=O)CNC(=O)[C@H](CCCNC(=N)N)NC5=O)nn1)Cc1cc5c(OCc6cn(CCC(=O)O)nn6)cc1Cc1cc(c(OCc6cn(CCC(=O)O)nn6)cc1C4)OCCOc1cc(c(cc1OC)Cc1cc(c(OC)cc1C3)OCCO5)C2 [Biosensor 5]
- 129Xe NMR chemical shift of "bound" biosensor [1, 8]: 71.2 ppm
- 129Xe NMR chemical shift of "free" biosensor [1, 8]: 67.1 ppm
- 129Xe NMR chemical shift of biosensor alone ([1]; 100 μM, Tris buffer (1 mM, pH 7.2)): 65.8 ppm
- solubility [2]: ≤ 250 µM

SMILES: C#CCOc1cc2c3cc1OCCOc1cc4c(cc1OC)Cc1cc5c(OC)cc1Cc1cc(c(OC)cc1C4)OCCOc1cc(c(cc1OCC#C)Cc1cc(c(OCc4cn(CCCC[C@@H]6NC(=O)[C@@H](Cc7ccc(O)cc7)NC(=O)[C@H](CC(=O)O)NC(=O)CNC(=O)[C@H](CCCNC(=N)N)NC6=O)nn4)cc1C3)OCCO5)C2 [Biosensor 3]
- maximum toxicity [3]: 40%
- lower affinity compared to c[RGDyK] peptide alone [4]: approximately 4 fold
- maximum toxicity [5]: 61%
- maximum toxicity [6]: 57%
- weaker binding compared to c[RGDyK] peptide [7]: approximately 10 fold
